Here are results for one molecule from patent publication US10682332B2, “Method for treating melanoma” (Huanggang normal University, priority 2017, dated 2020).

For assay [1], the system named is human melanoma cancer cell A375. The assay is described as follows: Cell cycle arrest by PI staining and flow cytometry. The class given is cell-based. The note with it: 24 hrs, control 1.4%. As for the experimental part: To further elucidate the mechanism of growth inhibition of the human melanoma cancer cells by 5-hydroxy-3,6,7,8,3′,4′-hexamethoxyflavone, another study was carried out using only human melanoma cancer cell A375 and 3 study groups. In one liter of the culturing media, 100 μL of 25 and 50 μmol of 5-hydroxy-3,6,7,8,3′,4′-hexamethoxyflavone prepared solutions were added to two study groups. The control group was only treated with 2% DMSO solution.
The studied cells were incubated for 24 hrs before collected in a centrifuge tube. The cells were then washed with PBS at 4° C. and n mixed with 70% ethanol pre-cooled at −20° C. before kept at 4° C. overnight. Next, the cells were centrifuged at 1000 rpm to remove ethanol and the cell density was adjusted to (1-2)×10^6 cells/mL by add PBS. Following adding PI and DNase-free RNase to respectively reach final concentrations of 50 μg/mL and 50 µg/mL, the cells were stained for cell cycle and apoptosis studies by flow cytometry. All studies were repeated 3 times and the averages were calculated.
(In flow cytometry, cells or beads pass a laser one at a time.)

The test system is the same in assay [2]. In words: Growth inhibition of human melanoma cancer cell A375. It counts as cell-based. As to conditions: 3.125-50 μmol solutions, 48 hrs culturing, absorbance. The method, then:
(§1) The study was conducted using human melanoma cancer cell line A2058 or A375 as follows: culturing the cell line in DMEM medium; adding 5-hydroxy-3,6,7,8,3′,4′-hexamethoxyflavone with varying concentrations (3.125, 6.25, 12.5, 25, 50 μmol in 100 μl of 2% DMSO solution per liter of the medium); collecting the control and treated cells after 48 hrs of culturing and determining the cell viability by measuring light absorbance of the cells; and calculating the IC50 rate in the human melanoma cancer cells.
(§2) The cells derived from human melanoma lines A2058 and A375 were cultured in DMEM medium containing 100 U/mL penicillin, 100 μg/ml streptomycin, and 10% fetal bovine serum at a temperature of 37° C. and with carbon dioxide at a concentration of 5%. The cultured cells were divided into 6 study groups and each would be treated with 5-hydroxy-3,6,7,8,3′,4′-hexamethoxyflavone of a different concentration. […] After culturing for 48 hrs, the cells were collected and the absorbance of each treatment group was measured for calculating the IC50 rate in human melanoma cancer cell A2058 by the treatment. […]

The subject of assay [3] is human melanoma cancer cell A375-engrafted C57BL/6 mice. In words: Tumor growth in human melanoma cancer cell A375-engrafted C57BL/6 mice. It counts as in vivo, mouse. As to conditions: fed 0.4 mL of 0.5 μmol solution once every 2 days, 28 days after inoculation; control 2450 mm^3. As for the experimental part: The study was carried out as follows: inoculating C57BL/6 mice with of the human melanoma cancer cells; dividing the mice into 2 groups with 8 mice in each group and treating them once every two days with (i) 0.4 ml of 2% DMSO, (ii) 0.4 ml of 2% DMSO containing 0.5 μmol of 5-hydroxy-3,6,7,8,3′,4′-hexamethoxyflavone; measuring tumor sizes after animal sacrificing 28 days post tumor cell inoculation.
The experimental C57BL/6 mice were divided into 2 groups, with 8 in each group. Each mouse was fed with 0.4 mL of 0.5 μmol 5-hydroxy-3,6,7,8,3′,4′-hexamethoxyflavone solution as in the treatment group or with 0.4 mL 2% DMSO solution as in the control group at a frequency of once every 2 days. Each mouse was inoculated with human melanoma cancer cell A375 following a standard protocol. 28 days after of the inoculation, the mice were sacrificed. Finally, sizes of tumors in each group of mice were measured and their averages were calculated.

The test system of assay [4] is human melanoma cancer cell A2058. In words: Growth inhibition of human melanoma cancer cell A2058. As to conditions: 3.125-50 μmol solutions, 48 hrs culturing, absorbance. It counts as cell-based. As for the experimental part: as §1, §2

For `COc1ccc(-c2oc3c(OC)c(OC)c(OC)c(O)c3c(=O)c2OC)cc1OC` [2-(3,4-dimethoxy-phenyl)-5-hydroxy-3,6,7,8-tetramethoxy-chromen-4-one], the entries for the “G1 phase cells of the total cells” value in assay [1] (25 μmol drug solution) and in assay [1] (50 μmol drug solution) were 9.4% and 25%, respectively. Further, in assay [2], the “growth of human melanoma cancer cell A375” value is reported as “inhibited the growth”. The average tumor size in assay [3] is listed as 890 mm^3. In addition, the “growth of human melanoma cancer cell A2058” value in assay [4] was “inhibited the growth”.
